Source: ChEMBL document CHEMBL3779792, “Anti-proliferative evaluation of monoterpene derivatives against leukemia” (Eur J Med Chem, 2016)

Columns and labels:
[1] = Cytotoxicity against human NALM6 cells after 72 hrs by Cell-Titer Glo assay; format: functional, cell-based; details: NALM-6, 72 h
[2] = Cytotoxicity against human SEM cells after 72 hrs by Cell-Titer Glo assay; format: functional, cell-based
HepG2 = experiment: Cytotoxicity against human HepG2 cells after 72 hrs by Cell-Titer Glo assay; format: functional, cell-based; details: HepG2, 72 h
Raji = experiment: Cytotoxicity against human Raji cells after 72 hrs by Cell-Titer Glo assay; format: functional, cell-based
Jurkat = experiment: Cytotoxicity against human Jurkat cells after 72 hrs by Cell-Titer Glo assay; format: functional, cell-based
BJ = experiment: Cytotoxicity against human BJ cells after 72 hrs by Cell-Titer Glo assay; format: cell-based
HEK293 = experiment: Cytotoxicity against HEK293 cells after 72 hrs by Cell-Titer Glo assay; format: cell-based; details: Homo sapiens, HEK293, 72 h

COc1ccc(/C=C/[C@@](C)(/C=C/c2ccc(O)c(/C=C/C#N)c2)CCC=C(C)C)cc1
EC50 [1]: 16.5 µM
EC50 [2]: 4.54 µM
EC50 (HepG2): > 26 µM
EC50 (Raji): > 26 µM
EC50 (Jurkat): > 49 µM
EC50 (BJ): > 23.7 µM
EC50 (HEK293): > 36.6 µM

C=C[C@@](C)(/C=C/c1ccc(O)cc1)CC/C=C(C)/C=C/C(=O)OCc1ccccc1
EC50 [1]: 36 µM
EC50 [2]: > 36.6 µM
EC50 (HepG2): > 52.1 µM
EC50 (Raji): > 26 µM
EC50 (Jurkat): > 49 µM
EC50 (BJ): > 36.6 µM
EC50 (HEK293): > 36.6 µM

C=C[C@@](C)(/C=C/c1ccc(O)c(/C=C/C#N)c1)CCC=C(C)C
EC50 [1]: > 43.5 µM
EC50 [2]: > 36.6 µM
EC50 (HepG2): > 52.1 µM
EC50 (Raji): > 26 µM
EC50 (Jurkat): > 49 µM
EC50 (BJ): > 36.6 µM
EC50 (HEK293): > 36.6 µM

C=C[C@@](C)(/C=C/c1ccc(O)cc1)CC/C=C(\C)C=O
EC50 [1]: 12.6 µM
EC50 [2]: > 36.6 µM
EC50 (HepG2): > 52.1 µM
EC50 (Raji): > 26 µM
EC50 (Jurkat): > 49 µM
EC50 (BJ): > 36.6 µM
EC50 (HEK293): > 36.6 µM

C=C[C@@](C)(/C=C/c1ccc(OS(=O)(=O)c2ccc(C)cc2)cc1)CCC=C(C)C
EC50 [1]: > 43.5 µM
EC50 [2]: > 43.5 µM
EC50 (HepG2): > 52.1 µM
EC50 (Raji): > 26 µM
EC50 (Jurkat): > 49 µM
EC50 (BJ): > 36.6 µM
EC50 (HEK293): > 36.6 µM

C=C[C@](C)(CCCC(C)C)CCc1ccc(O)cc1
EC50 [1]: 27.5 µM
EC50 [2]: > 36.6 µM
EC50 (HepG2): > 52.1 µM
EC50 (Raji): > 26 µM
EC50 (Jurkat): > 49 µM
EC50 (BJ): > 36.6 µM
EC50 (HEK293): > 36.6 µM

C=C[C@@](C)(/C=C/c1ccc(O)c(/C=C/C(=O)OCC)c1)CCC=C(C)C
EC50 [1]: 20.9 µM
EC50 [2]: > 36.6 µM
EC50 (HepG2): > 52.1 µM
EC50 (Raji): > 26 µM
EC50 (Jurkat): > 49 µM
EC50 (BJ): > 36.6 µM
EC50 (HEK293): > 36.6 µM

C=C[C@@](C)(/C=C/c1ccc(O)cc1)CC/C=C(\C)C(=O)OCC
EC50 [1]: > 43.5 µM
EC50 [2]: > 36.6 µM
EC50 (HepG2): > 52.1 µM
EC50 (Raji): > 26 µM
EC50 (Jurkat): > 49 µM
EC50 (BJ): > 36.6 µM
EC50 (HEK293): > 36.6 µM

C=C[C@@](C)(/C=C/c1ccc(O)cc1)CCC1OC1(C)C (some centres not stated)
EC50 [1]: > 43.5 µM
EC50 [2]: > 36.6 µM
EC50 (HepG2): > 52.1 µM
EC50 (Raji): > 22.6 µM
EC50 (Jurkat): > 49 µM
EC50 (BJ): > 36.6 µM
EC50 (HEK293): > 36.6 µM

C=C[C@@](C)(/C=C/c1ccc(OCc2ccccc2)cc1)CCC=C(C)C
EC50 [1]: > 43.5 µM
EC50 [2]: > 36.6 µM
EC50 (HepG2): > 52.1 µM
EC50 (Raji): > 26 µM
EC50 (Jurkat): > 49 µM
EC50 (BJ): > 36.6 µM
EC50 (HEK293): > 36.6 µM

C=C[C@@](C)(/C=C/c1ccc(O)cc1)CCCO
EC50 [1]: > 43.5 µM
EC50 [2]: > 36.6 µM
EC50 (HepG2): > 52.1 µM
EC50 (Raji): > 26 µM
EC50 (Jurkat): > 49 µM
EC50 (BJ): > 36.6 µM
EC50 (HEK293): > 36.6 µM

C=C[C@@](C)(/C=C/c1ccc(O)cc1)CC/C=C(C)/C=N/N
EC50 [1]: > 43.5 µM
EC50 [2]: > 36.6 µM
EC50 (HepG2): > 52.1 µM
EC50 (Raji): > 26 µM
EC50 (Jurkat): > 49 µM
EC50 (BJ): > 36.6 µM
EC50 (HEK293): > 36.6 µM

CCOC(=O)/C=C/c1cc(/C=C/[C@](C)(/C=C/c2ccc(OC)cc2)CCC=C(C)C)ccc1O
EC50 [1]: > 43.5 µM
EC50 [2]: > 36.6 µM
EC50 (HepG2): > 52.1 µM
EC50 (Raji): > 26 µM
EC50 (Jurkat): > 49 µM
EC50 (BJ): > 36.6 µM
EC50 (HEK293): > 36.6 µM

COc1ccc(/C=C/[C@@](C)(/C=C/c2ccc(O)cc2)CCC=C(C)C)cc1
EC50 [1]: > 43.5 µM
EC50 [2]: > 36.6 µM
EC50 (HepG2): > 52.1 µM
EC50 (Raji): > 26 µM
EC50 (Jurkat): > 49 µM
EC50 (BJ): > 36.6 µM
EC50 (HEK293): > 36.6 µM

C=C[C@@](C)(/C=C/c1ccc(O)c(/C=C/C=C/c2ccccc2)c1)CCC=C(C)C
EC50 [1]: > 43.5 µM
EC50 [2]: > 15 µM
EC50 (HepG2): > 52.1 µM
EC50 (Raji): > 26 µM
EC50 (Jurkat): > 49 µM
EC50 (BJ): > 36.6 µM
EC50 (HEK293): > 36.6 µM

CCOc1ccc(/C=C/[C@@](C)(/C=C/c2ccc(O)cc2)CCC=C(C)C)cc1
EC50 [1]: > 43.5 µM
EC50 [2]: > 36.6 µM
EC50 (HepG2): > 52.1 µM
EC50 (Raji): > 26 µM
EC50 (Jurkat): > 49 µM
EC50 (BJ): > 36.6 µM
EC50 (HEK293): > 36.6 µM
